Data taken from publication PMC8906008 (Antiviral Research, 2022).
Where two headings read alike, the source gives them in different places.

Experiments:
[1] = target: SARS-CoV-2 nsp5 (nsp4-5-6 WT) (Severe acute respiratory syndrome coronavirus 2, UniProt P0DTD1); assay: cell-based; settings: for inhibition at 10 µM: HEK-293T
SARS-CoV-2 nsp5 = settings: read-out: reported in vitro IC50; ref Ma et al., 2021; cited from earlier work
[2] = target: purified SARS-CoV-2 nsp5 protein (Severe acute respiratory syndrome coronavirus 2, UniProt P0DTD1); assay: biochemical
SARS-CoV-2 = assay: microbe, parasite or virus in culture; type: cell-based
[3] = read-out: Primary screen nsp5-WT RLU (%)
[4] = read-out: Secondary screen nsp5-WT RLU (%)

Compound	inhibition at 10 µM [1, 3] [%]	inhibition at 10 µM [1, 4] [%]	also measured
Cc1cnc(Nc2ccc(OCCN3CCCC3)cc2)nc1Nc1cccc(S(=O)(=O)NC(C)(C)C)c1 [compound 6, Fedratinib (SAR302503)]	32.7	57.6 ± 8.6	–
Cc1cnc(Nc2ccc(N3CCN(C)CC3)cc2)nc1Nc1cccc(S(=O)(=O)NC(C)(C)C)c1 [compound 8, TG101209]	–	–	Primary screen nsp5-WT RLU (%) [1]: 30.0%; Secondary screen nsp5-WT RLU (%) [1]: 34.9 ± 4.0%
C=CC(=O)Nc1cccc(Nc2nc(Nc3ccc(N4CCN(C(C)=O)CC4)cc3OC)ncc2C(F)(F)F)c1 [compound 20, Rociletinib (CO-1686. AVL-301)]	13.3	9.7 ± 1.9	–
O=C(Nc1c[nH]nc1-c1nc2ccc(CN3CCOCC3)cc2[nH]1)NC1CC1 [compound 10, AT9283]	24	14.7 ± 0.8	–
CCOC(=O)C1=C(C)NC(C)=C(C(=O)OCC)C1c1ccccc1/C=C/C(=O)OC(C)(C)C [compound 3, Lacidipine]	10.2	8.9 ± 0.7	–
O=C(NC(Cc1cc(=O)[nH]c2ccccc12)C(=O)O)c1ccc(Cl)cc1 (stereo not drawn) [compound 43, Rebamipide]	–	-1.5 ± 0.5	–
CC(C)(C(=O)c1cccnc1)c1cccnc1 [compound 44, Metyrapone]	–	-1.4 ± 0.2	–
C1=C/COCc2cc(ccc2OCCN2CCCC2)Nc2nccc(n2)-c2cccc(c2)COC/1 [Compound #9, Pacritinib (SB1518)]	28.2	15.3 ± 1.3	–
COc1cc(NC(=O)Nc2cccc(CNC(=O)O[C@H]3CCOC3)c2)ccc1-c1cnco1 [compound 5, Merimepodib]	46.1	39	IC50 [2]: > 600 µM; inhibition of nsp5 protease activity in vitro [2]: does not efficiently inhibit; IC50 [1]: < 50 µM; SI (selectivity index) (SARS-CoV-2; EC50 to CC50 ratio, A549-ACE2 cells): 1.5; EC50 (SARS-CoV-2; Severe acute respiratory syndrome coronavirus 2, A549-ACE2, read-out: EC50 inhibition of SARS-CoV-2 replication): 21 µM
CNCc1ccc(C)c(NC(=O)c2ccc(Nc3nc(-c4ccccc4)c4ccccc4n3)cc2)c1 [compound 16, BMS-833923 (XL139)]	16.4	16.2 ± 2.1	–
CC(C)(C)c1cnc(CSc2cnc(NC(=O)C3CCNCC3)s2)o1 [compound 17, SNS-032 (BMS-387032)]	15.7	10.7 ± 1.1	–
CC[C@@H]1C(=O)N(C)c2cnc(Nc3ccc(C(=O)N[C@H]4CC[C@H](N5CCN(CC6CC6)CC5)CC4)cc3OC)nc2N1C(C)C [compound 4, Volasertib (BI6727)]	83.9	114 ± 8.9	–
UNC2881 [compound 1]	–	–	Primary screen nsp5-WT RLU (%) [1]: 29.5%; Secondary screen nsp5-WT RLU (%) [1]: 18.2 ± 0.5%
Cc1sc2c(c1C)C(c1ccc(Cl)cc1)=N[C@@H](CC(=O)Nc1ccc(O)cc1)c1nnc(C)n1-2 [compound 7, OTX015]	31.8	31.5 ± 11	–
Cc1nc(Nc2ncc(C(=O)Nc3c(C)cccc3Cl)s2)cc(N2CCN(CCO)CC2)n1 [compound 21, Dasatinib (BMS-354825)]	11.6	10.7 ± 1.7	–
C=CC(=O)Nc1cc(Nc2nccc(-c3cn(C)c4ccccc34)n2)c(OC)cc1N(C)CCN(C)C [compound 23, Osimertinib (AZD9291)]	–	–	Primary screen nsp5-WT RLU (%) [1]: 10.1%; Secondary screen nsp5-WT RLU (%) [1]: 8.3 ± 2.3%
COCCOc1ccc2c(c1)ncn2-c1ccc2cccc(N3CCC(N)CC3)c2n1 [compound 12, CP 673451]	19.4	13.9 ± 0.9	–
